Counter-ions that a name gives are not always drawn.
Key:
[1] = system: TNF-α production by human monocyte strain THP-1 cells stimulated with LPS; test: Inhibition of LPS-induced TNF-α production in THP-1 cells (ELISA); format: cell-based; conditions: compound 10^−5M, THP-1 cells 10^6 cells/ml, LPS 2 μg/ml, 37° C., two hours; for inhibition at 10 µM: Homo sapiens, 2 h, read-out: Rate of Inhibition (%) of TNF-α production
Procedure: Each candidate compound was inspected for the effect of inhibiting TNF-α production induced by the stimulation with lipopolysaccharide (LPS), by an in vitro test according to the method proposed by McGeehan et al. (Nature, 1994, 370:558-561).
The test (assay) was carried out by determining the amount of TNF-α produced by the human monocyte strain THP-1 cells induced by the stimulation with LPS.
The culture medium used in this test was RPMI 1640 culture medium supplemented wiTNFetal calf serum (10%), L-glutamine (2 mM), 2-mercaptoethanol (50 μM), penicillin (50 units/ml) and streptomycin (50 μg/ml).
Regarding the cells, the human monocyte strain THP-1 cells cultivated in the foregoing culture medium were centrifuged at 100 xg for 5 minutes to remove the supernatant and then again suspended in a fresh culture medium prior to the practical use. The LPS used herein was derived from S. Typhimurium and this was dissolved in purified water and then diluted with the culture medium prior to use. Each compound to be tested (candidate compound) was dissolved in dimethyl sulfoxide (DMSO) and diluted with the culture medium prior to the practical use.
The cells (10^6 cells/ml) prepared according to the foregoing method were admixed with the LPS (2 μg/ml) and a compound to be tested (10^−5M), the cells were incubated at 37° C. for two hours and then centrifuged at 1000 xg for 5 minutes. The resulting supernatant of the culture medium was inspected for the level of TNF-α using the human TNF-α-specific ELISA kit. In this connection, it was confirmed that the supernatant obtained by cultivating the cells in the culture medium free of any LPS (control) never included any TNF-α.
The rate of the TNF-α production inhibitory effect observed for each candidate compound was determined according to the following equation:
Rate of Inhibition (%)=100×(A−B)/A
Wherein A is the level of TNF-α detected in the supernatant obtained from the culture medium free of any candidate compound and B is the level of TNF-α detected in the supernatant obtained from the culture medium containing a candidate compound.

Compound	inhibition at 10 µM [1]	also measured
CC(C)CCN(CCN)C(=O)N[C@H](CSSC[C@H](Cc1ccccc1)NC(=O)N(CCN)CCC(C)C)Cc1ccccc1 (as salt: hydrochloride) [Compound 8-1, Bis[(2S)-2-[3-(2-aminoethyl)-3-isopentylureido]-3-phenylpropane] Disulfide di-hydrochloride]		melting point: 100 °C (dec.)
CC(=O)SCCN(CCc1ccccc1)C(=O)N[C@@H](Cc1ccccc1)CN(C)C [Compound 6-3, 1-[2-(Acetylthio)ethyl]-3-[(1S)-1-benzyl-2-(dimethylamino)ethyl]-1-phenethyl urea]	83%	
CC(=O)SC[C@H](Cc1ccccc1)NC(=O)N(CCC(C)C)CCN(C)C [Compound 6-8, 1-[(1S)-2-(Acetylthio)-1-benzylethyl]-3-[2-(dimethylamino)ethyl]-3-isopentyl urea]	60%	
CC(=O)SC[C@H](Cc1ccc(-c2ccccc2)cc1)NC(=O)N(CCC(C)C)CCN(C)C [Compound 6-11, 1-[(1S)-2-(Acetylthio)-1-[(4-biphenylyl)methyl]ethyl]-3-[2-(dimethylamino)-ethyl]-3-isopentyl urea]	76%	
CC(C)CCN(CCN)C(=O)N[C@H](CSSC[C@H](Cc1ccccc1)NC(=O)N(CCN)CCC(C)C)Cc1ccccc1 [Compound 8-1, Bis[(2S)-2-[3-(2-aminoethyl)-3-isopentylureido]-3-phenylpropane] Disulfide di-hydrochloride]	81%	
CC(C)CCN(CCN)C(=O)N[C@H](CSSC[C@H](Cc1ccc(-c2ccccc2)cc1)NC(=O)N(CCN)CCC(C)C)Cc1ccc(-c2ccccc2)cc1.Cl.Cl [Compound 8-2, Bis[(2S)-2-[3-(2-aminoethyl)-3-isopentylureido]-3-(4-biphenylyl)propane]-disulfide di-hydrochloride]		Rate of Inhibition (%) of TNF-α production [1]: 66%

Source: patent US6683200B2, “N-substituted-N′-substituted urea derivatives and pharmaceutical compositions containing the derivatives” (Santen Pharmaceutical Co., Ltd., priority 1999, dated 2004)
